US12692249B2, “WDR5 inhibitors and modulators” (Vanderbilt University, priority 2019, dated 2026)
Read-outs that look alike come from different tables or passages of the source.

Tests used:
WDR5 = WDR5 (Homo sapiens, UniProt P61964); experiment: TR-FRET competition binding assay, displacement of 10mer-Thr-FAM MLL peptide probe from His-tagged WDR5; conditions: WDR5-His tag (residues 24-334) 2 nM; 10mer-Thr-FAM 150 nM; 60 min, room temperature; read-out: Ki for Inhibition of WDR5 by TR-FRET assay
[1] = test system: MV4:11 human cancer cell lines; experiment: Cellular viability / anti-proliferative assay, CellTiter-Glo, 5 day protocol; type: cell-based; conditions: Homo sapiens, MV4-11, 120 h, read-out: GI50 on cellular proliferation of MV4:11 human cancer cell lines
Summary of the method: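 Luminescent ATP-based viability (CellTiter-Glo) after a 5-day exposure gave GI50 via sigmoidal fitting, averaged over two or more replicates. Compounds spanned 22 two-fold steps down from 30 μM at 0.3% DMSO, on 200 MV-4-11 cells per well grown in IMDM plus 10% FBS.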

[2] = MV4:11 cells, 5 day incubation, CellTiter-Glo, mean of at least two replicates

Ki (WDR5) [nM] | GI50 [1, 2] [nM] | SMILES | GI50 [1] [nM]
0.028 | 24 | Cc1cnc2cccc(N3CCc4c(cc(Cn5ccnc5)cc4-c4cn(C)nc4C(F)(F)F)C3=O)c2c1 [Example 104, 7-((1H-Imidazol-1-yl)methyl)-5-(1-methyl-3-(trifluoromethyl)-1H-pyrazol-4-yl)-2-(3-methylquinolin-5-yl)-3,4-dihydroisoquinolin-1(2H)-one] | 
< 0.02 | < 20 | CCc1cc(C(=O)NCCOC)c2nc(C)cc(N3CCc4c(cc(Cn5ccnc5)cc4-c4cn(C)nc4C(F)(F)F)C3=O)c2c1 [Example 190, 4-(7-((1H-Imidazol-1-yl)methyl)-5-(1-methyl-3-(trifluoromethyl)-1H-pyrazol-4-yl)-1-oxo-3,4-dihydroisoquinolin-2(1H)-yl)-6-ethyl-N-(2-methoxyethyl)-2-methylquinoline-8-carboxamide] | 
0.023 | < 20 | CCc1cc(N2CC(=O)N(C)C2)c2nc(C)cc(N3CCc4c(cc(Cn5ccnc5)cc4-c4cn(C)nc4C(F)(F)F)C3=O)c2c1 [Example 113, 7-((1H-Imidazol-1-yl)methyl)-2-(6-ethyl-2-methyl-8-(3-methyl-4-oxoimidazolidin-1-yl)quinolin-4-yl)-5-(1-methyl-3-(trifluoromethyl)-1H-pyrazol-4-yl)-3,4-dihydroisoquinolin-1(2H)-one] | 
< 0.02 | 43 | CCc1cc(COc2ccncc2)c2nccc(N3CCc4c(cc(Cn5ccnc5)cc4-c4cn(C)nc4C(F)(F)F)C3=O)c2c1 [Example 187, 7-((1H-Imidazol-1-yl)methyl)-2-(6-ethyl-8-((pyridin-4-yloxy)methyl)quinolin-4-yl)-5-(1-methyl-3-(trifluoromethyl)-1H-pyrazol-4-yl)-3,4-dihydroisoquinolin-1(2H)-one] | 
> 33000 | 3970 | COc1ccc2nc(C)cc(N3CCc4c(cc(Cn5ccnc5[N+](=O)[O-])cc4-c4cn(C)nc4C(F)(F)F)C3=O)c2c1 [Example 118, 2-(6-Methoxy-2-methylquinolin-4-yl)-5-(1-methyl-3-(trifluoromethyl)-1H-pyrazol-4-yl)-7-((2-nitro-1H-imidazol-1-yl)methyl)-3,4-dihydroisoquinolin-1(2)-one] | 
< 0.02 | < 20 | COc1cc(Cn2ccnc2)c2nccc(N3CCc4c(cc(Cn5ccnc5)cc4-c4cn(C)nc4C(F)(F)F)C3=O)c2c1 [Example 139, 7-((1H-imidazol-1-yl)methyl)-2-(8-((1H-imidazol-1-yl)methyl)-6-methoxyquinolin-4-yl)-5-(1-methyl-3-(trifluoromethyl)-1H-pyrazol-4-yl)-3,4-dihydroisoquinolin-1(2H)-one] | 
< 0.02 | < 20 | COc1cc(C#N)c2nc(C)cc(N3CCc4c(cc(Cn5ccnc5)cc4-c4cn(C)nc4C(F)(F)F)C3=O)c2c1 [Example 175, 4-(7-((1H-Imidazol-1-yl)methyl)-5-(1-methyl-3-(trifluoromethyl)-1H-pyrazol-4-yl)-1-oxo-3,4-dihydroisoquinolin-2(1H)-yl)-6-methoxy-2-methylquinoline-8-carbonitrile] | 
< 0.02 | < 20 | CCc1cc(C(=O)NCc2cnccn2)c2nccc(N3CCc4c(cc(Cn5ccnc5)cc4-c4cn(C)nc4C(F)(F)F)C3=O)c2c1 [Example 173, 4-(7-((1H-Imidazol-1-yl)methyl)-5-(1-methyl-3-(trifluoromethyl)-1H-pyrazol-4-yl)-1-oxo-3,4-dihydroisoquinolin-2(1H)-yl)-6-ethyl-N-(pyrazin-2-ylmethyl)quinoline-8-carboxamide] | 
< 0.02 | < 20 | CCc1cc(C(=O)NC2CC2)c2nccc(N3CCc4c(cc(Cn5ccnc5)cc4-c4cn(C)nc4C(F)(F)F)C3=O)c2c1 [Example 172, 4-(7-((1H-Imidazol-1-yl)methyl)-5-(1-methyl-3-(trifluoromethyl)-1H-pyrazol-4-yl)-1-oxo-3,4-dihydroisoquinolin-2(1H)-yl)-N-cyclopropyl-6-ethylquinoline-8-carboxamide] | 
< 0.02 | 28 | COc1cc(C(=O)Nc2ncco2)c2nc(C)cc(N3CCc4c(cc(Cn5ccnc5)cc4-c4cn(C)nc4C(F)(F)F)C3=O)c2c1 [Example 200, 4-(7-((1H-Imidazol-1-yl)methyl)-5-(1-methyl-3-(trifluoromethyl)-1H-pyrazol-4-yl)-1-oxo-3,4-dihydroisoquinolin-2(1H)-yl)-6-methoxy-2-methyl-N-(oxazol-2-yl)quinoline-8-carboxamide] | 
< 0.02 | < 20 | CCc1cc(COC2CCOCC2)c2nccc(N3CCc4c(cc(Cn5ccnc5)cc4-c4cn(C)nc4C(F)(F)F)C3=O)c2c1 [Example 182, 7-((1H-Imidazol-1-yl)methyl)-2-(6-ethyl-8-(((tetrahydro-2H-pyran-4-yl)oxy)methyl)quinolin-4-yl)-5-(1-methyl-3-(trifluoromethyl)-1H-pyrazol-4-yl)-3,4-dihydroisoquinolin-1(2H)-one] | 

Further lines, the molecule ahead of its results:

SMILES | Ki (WDR5) [nM] | GI50 [1, 2] [nM] | GI50 [1] [nM]
Cc1nccn1Cc1cc2c(c(-c3cn(C)nc3C(F)(F)F)c1)CCN(c1cccc3ccccc13)C2=O [Example 1, 7-((2-Methyl-1H-imidazol-1-yl)methyl)-5-(1-methyl-3-(trifluoromethyl)-1H-pyrazol-4-yl)-2-(naphthalen-1-yl)-3,4-dihydroisoquinolin-1(2H)-one] | 0.46 | 1540 | 
COc1cc(N2CCN(C)CC2)c2nccc(N3CCc4c(cc(Cn5ccnc5)cc4-c4cn(C)nc4C(F)(F)F)C3=O)c2c1 [Example 31, 7-((1H-Imidazol-1-yl)methyl)-2-(6-methoxy-8-(4-methylpiperazin-1-yl)quinolin-4-yl)-5-(1-methyl-3-(trifluoromethyl)-1H-pyrazol-4-yl)-3,4-dihydroisoquinolin-1(2H)-one] | < 0.02 | < 20 | 
CCn1cc(-c2cc(Cn3ccnc3)cc3c2CCN([C@H]2CCOc4ccc(OC)cc42)C3=O)c(C(F)(F)F)n1 [Example 75, (S)-7-((1H-Imidazol-1-yl)methyl)-5-(1-ethyl-3-(trifluoromethyl)-1H-pyrazol-4-yl)-2-(6-methoxychroman-4-yl)-3,4-dihydroisoquinolin-1(2H)-one] | < 0.02 | 23 | 
COc1ccc2nccc(N3CCc4c(cc(Cn5ccnc5)cc4-c4cn(C)nc4C(F)(F)F)C3=O)c2c1 [Example 13, 7-((1H-Imidazol-1-yl)methyl)-2-(6-methoxyquinolin-4-yl)-5-(1-methyl-3-(trifluoromethyl)-1H-pyrazol-4-yl)-3,4-dihydroisoquinolin-1(2H)-one] | < 0.02 | 45 | 
Cn1cc(-c2cc(Cn3ccnc3)cc3c2CCN([C@H]2CCOc4ncc(Cl)cc42)C3=O)c(C(F)(F)F)n1 [Example 72] | < 0.02 |  | < 20
COc1ccc2c(Cl)ncc(N3CCc4c(cc(Cn5ccnc5)cc4-c4cn(C)nc4C(F)(F)F)C3=O)c2c1 [Example 21, 7-((1H-Imidazol-1-yl)methyl)-1′-chloro-6′-methoxy-5-(1-methyl-3-(trifluoromethyl)-1H-pyrazol-4-yl)-3,4-dihydro-1H-[2,4′-biisoquinolin]-1-one] | < 0.02 | 23 | 
CCc1cc(OC)c2nccc(N3CCc4c(cc(Cn5ccnc5)cc4-c4cn(C)nc4C(F)(F)F)C3=O)c2c1 [Example 20, 7-((1H-Imidazol-1-yl)methyl)-2-(6-ethyl-8-methoxyquinolin-4-yl)-5-(1-methyl-3-(trifluoromethyl)-1H-pyrazol-4-yl)-3,4-dihydroisoquinolin-1(2H)-one] | < 0.02 | < 20 | 
Cc1nccn1Cc1cc2c(c(-c3cn(C)nc3C(F)(F)F)c1)CCN([C@H]1CCc3ccccc31)C2=O [Example 76, (S)-2-(2,3-Dihydro-1H-inden-1-yl)-7-((2-methyl-1H-imidazol-1-yl)methyl)-5-(1-methyl-3-(trifluoromethyl)-1H-pyrazol-4-yl)-3,4-dihydroisoquinolin-1(2H)-one] | < 0.02 | 613 | 
COc1cnc2c(c1)c(N1CCc3c(cc(Cn4ccnc4)cc3-c3cn(C)nc3C(F)(F)F)C1=O)cn2C [Example 83] | < 0.02 | 45 | 
CCOC(=O)c1cc(OC)cc2c(N3CCc4c(cc(Cn5ccnc5)cc4-c4cn(C)nc4C(F)(F)F)C3=O)cc(C)nc12 [Example 95, Ethyl 4-(7-((1H-imidazol-1-yl)methyl)-5-(1-methyl-3-(trifluoromethyl)-1H-pyrazol-4-yl)-1-oxo-3,4-dihydroisoquinolin-2(1H)-yl)-6-methoxy-2-methylquinoline-8-carboxylate] | < 0.02 | 23 | 
COc1cc(COC2CC2)c2nccc(N3CCc4c(cc(Cn5ccnc5)cc4-c4cn(C)nc4C(F)(F)F)C3=O)c2c1 [Example 167, 7-((1H-Imidazol-1-yl)methyl)-2-(8-(cyclopropoxymethyl)-6-methoxyquinolin-4-yl)-5-(1-methyl-3-(trifluoromethyl)-1H-pyrazol-4-yl)-3,4-dihydroisoquinolin-1(2H)-one] | 0.034 |  | 106
COc1ccc2c(OC)ncc(N3CCc4c(cc(Cn5ccnc5)cc4-c4cn(C)nc4C(F)(F)F)C3=O)c2c1 [Example 22, 7-((1H-imidazol-1-yl)methyl)-1′,6′-dimethoxy-5-(1-methyl-3-(trifluoromethyl)-1H-pyrazol-4-yl)-3,4-dihydro-1H-[2,4′-biisoquinolin]-one] | 0.029 | 111 | 
Cc1nccn1Cc1cc2c(c(-c3cn(C)nc3C(F)(F)F)c1)CCN(c1cn(C)c3ncc(F)cc13)C2=O [Example 82, 2-(5-Fluoro-1-methyl-1H-pyrrolo[2,3-b]pyridin-3-yl)-7-((2-methyl-1H-imidazol-1-yl)methyl)-5-(1-methyl-3-(trifluoromethyl)-1H-pyrazol-4-yl)-3,4-dihydroisoquinolin-1(2H)-one] | 0.061 | 384 | 
